Common to all, as to type: in vivo
Test [1] has as its system Avena fatua (AVEFA). In words: Pre-emergence herbicidal activity, glasshouse pot test. The note with it: Avena fatua, 312 h; Rate 250 g/ha; pre-emergence spray; evaluated after 13 days; read-out: Pre-emergence activity AVEFA (100=total damage to plant; 0=no damage to plant). Summed up: (§1)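 Seeds sown in standard soil in pots were sprayed 1 day after sowing (pre-emergence) or after 8 days' cultivation (post-emergence) with aqueous spray from acetone/water (50:50) formulation containing 0.5% Tween 20. Plants grew at 24/16° C day/night, 14 h light, 65% humidity, watered twice daily. Damage scored after 13 days, 0–100.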

Test [2] deals with Alopecurus myosuroides (ALOMY). The description is as above. The note with it: Alopecurus myosuroides, 312 h; Rate 250 g/ha; pre-emergence spray; evaluated after 13 days; read-out: Pre-emergence activity ALOMY (100=total damage to plant; 0=no damage to plant). Summed up:
as §1

Test [3] relates to Echinochloa crus-galli (ECHCG). The description is as above. As to conditions: Echinochloa crus-galli, 312 h; Rate 250 g/ha; pre-emergence spray; evaluated after 13 days; read-out: Pre-emergence activity ECHCG (100=total damage to plant; 0=no damage to plant). Summed up:
as §1

In test [4] the test system is Lolium perenne (LOLPE). The description is as above. The note with it: Lolium perenne, 312 h; Rate 250 g/ha; pre-emergence spray; evaluated after 13 days; read-out: Pre-emergence activity LOLPE (100=total damage to plant; 0=no damage to plant). The method in brief:
as §1

Test [5] has as its system Avena fatua (AVEFA). Put plainly: Post-emergence herbicidal activity, glasshouse pot test. As to conditions: Avena fatua, 312 h, rate 250 g/ha, evaluated after 13 days, glasshouse, read-out: Post-emergence activity AVEFA (100=total damage to plant; 0=no damage to plant). The method in brief: as §1
Test [6] has as its system Alopecurus myosuroides (ALOMY). The test is described as above. The note with it: Alopecurus myosuroides, 312 h, rate 250 g/ha, evaluated after 13 days, glasshouse, read-out: Post-emergence activity ALOMY (100=total damage to plant; 0=no damage to plant). Summed up: as §1
The subject of test [7] is Echinochloa crus-galli (ECHCG). The description is as above. The note with it: Echinochloa crus-galli, 312 h, rate 250 g/ha, evaluated after 13 days, glasshouse, read-out: Post-emergence activity ECHCG (100=total damage to plant; 0=no damage to plant). Summed up:
as §1

For test [8], the system named is Lolium perenne (LOLPE). The test is described as above. As to conditions: Lolium perenne, 312 h, rate 250 g/ha, evaluated after 13 days, glasshouse, read-out: Post-emergence activity LOLPE (100=total damage to plant; 0=no damage to plant). The method in brief: as §1

The structures appear in SMILES notation.

Regarding `CCc1ccc(Oc2ccc(Br)cc2)cc1C1=C(O)CCC(C)(C)C1=O` [Example A-113], the pest or weed control at 250 g/ha with Avena fatua (AVEFA) [1] came out at 30%; in test [2], 30%; in test [3], 60%; in the test with Lolium perenne (LOLPE) [4], 100%; with Avena fatua (AVEFA) [5], 0%; in test [6], 10%. For the same compound, the pest or weed control at 250 g/ha in test [7] was 90%; in the test with Lolium perenne (LOLPE) [8] it was 40%.

In the case of `CCc1ccc(Oc2ccc(F)cc2Cl)cc1C1=C(O)C(C)(C)OC(C)(C)C1=O` [Example A-33], the pest or weed control at 250 g/ha in the test with Avena fatua (AVEFA) [1] was determined as 10%; in test [2], 20%; in test [3] it was 90%; in the test with Lolium perenne (LOLPE) [4], 80%; in the test on Avena fatua (AVEFA) [5] it was 50%; in test [6], 40%. Also, the pest or weed control at 250 g/ha turned out to be 100% in test [7] and 50% with Lolium perenne (LOLPE) [8].

Regarding `CCc1ccc(Oc2ncc(Br)cn2)cc1C1=C(O)C(C)(C)OC(C)(C)C1=O` [Example A-109], the pest or weed control at 250 g/ha in the test with Avena fatua (AVEFA) [1] stood at 70%; in test [2] it was 80%; in test [3], 100%; in the test on Lolium perenne (LOLPE) [4], 80%; in the test with Avena fatua (AVEFA) [5] it was 90%; in test [6] it was 90%. The results for the pest or weed control at 250 g/ha (in test [7]; in the test on Lolium perenne (LOLPE) [8]) were 100% and 90%, respectively.

As for `CCc1ccc(Oc2nc3ccc(OC)cc3s2)cc1C1=C(O)C(C)(C)OC(C)(C)C1=O` [Example A-214], the pest or weed control at 250 g/ha in the test on Avena fatua (AVEFA) [1] came out at 30%; in test [2] it was 50%; in test [3] it was 90%; in the test with Lolium perenne (LOLPE) [4], 40%; with Avena fatua (AVEFA) [5], 70%; in test [6] it was 100%. The pest or weed control at 250 g/ha (in test [7]; in the test on Lolium perenne (LOLPE) [8]) was 100% in each case.

Consider `CCc1ccc(Oc2ccc([N+](=O)[O-])c(Cl)c2)cc1C1=C(O)[C@H]2CC[C@H](C2)C1=O` [Example A-333], for which the pest or weed control at 250 g/ha amounted to 40% in the test on Avena fatua (AVEFA) [1]; 50% in test [2]; 100% in test [3]; 90% in the test with Lolium perenne (LOLPE) [4]; 70% with Avena fatua (AVEFA) [5]; 60% in test [6]. Further, the pest or weed control at 250 g/ha is 100% in test [7] and 60% with Lolium perenne (LOLPE) [8].

Consider `CCc1ccc(Oc2ccc(Cl)c(F)c2)cc1C1=C(O)CCCC1=O` [Example A-68], for which the pest or weed control at 250 g/ha in the test with Avena fatua (AVEFA) [1] came out at 30%; in test [2], 30%; in test [3], 100%; in the test on Lolium perenne (LOLPE) [4], 70%; in the test on Avena fatua (AVEFA) [5], 40%; in test [6], 60%. The values for the pest or weed control at 250 g/ha (in test [7]; with Lolium perenne (LOLPE) [8]) were 100% and 60%, respectively.

With `CCc1ccc(Oc2ccc([N+](=O)[O-])cc2C(F)(F)F)cc1C1=C(O)CC(C)(C)CC1=O` [Example A-294], the pest or weed control at 250 g/ha with Avena fatua (AVEFA) [1] worked out at 0%; in test [2], 60%; in test [3], 90%; in the test on Lolium perenne (LOLPE) [4] it was 70%; in the test with Avena fatua (AVEFA) [5], 40%; in test [6], 40%. Further, the results for the pest or weed control at 250 g/ha (in test [7]; in the test on Lolium perenne (LOLPE) [8]) were 80% and 20%, respectively.

Take `CCc1ccc(Oc2ccc(C#N)c(Cl)c2)cc1C1=C(O)CC2(CCOCC2)CC1=O` [Example A-277]: the pest or weed control at 250 g/ha was 30% in the test with Avena fatua (AVEFA) [1]; 30% in test [2]; 100% in test [3]; 100% with Lolium perenne (LOLPE) [4]; 80% with Avena fatua (AVEFA) [5]; 30% in test [6]. Moreover, the pest or weed control at 250 g/ha (in test [7]; in the test with Lolium perenne (LOLPE) [8]) was 100% in each case.

Turning to `CCc1ccc(Oc2ccc(C#N)c(Cl)c2)cc1C1=C(O)[C@@H]2CC[C@](C)(C1=O)C2(C)C` [Example A-313], the pest or weed control at 250 g/ha with Avena fatua (AVEFA) [1] was determined as 70%; in test [2], 80%; in test [3], 100%; in the test on Lolium perenne (LOLPE) [4], 100%; in the test with Avena fatua (AVEFA) [5], 90%; in test [6], 90%. The pest or weed control at 250 g/ha was determined as 100% in test [7] and 80% in the test with Lolium perenne (LOLPE) [8].

On to `CCc1ccc(Oc2ccc(Cl)cc2C#N)cc1C1=C(O)C(C)(C)OC(C)(C)C1=O` [Example A-224], for which the pest or weed control at 250 g/ha is 10% with Avena fatua (AVEFA) [1]; 20% in test [2]; 20% in test [3]; 30% in the test on Lolium perenne (LOLPE) [4]; 50% in the test with Avena fatua (AVEFA) [5]; 50% in test [6]. The pest or weed control at 250 g/ha (in test [7]; with Lolium perenne (LOLPE) [8]) was 70% each time.

For `CCc1ccc(Oc2ccc(C(F)(F)F)cc2Cl)cc1C1=C(O)[C@H]2CC[C@H](C2)C1=O` [Example A-331], the pest or weed control at 250 g/ha with Avena fatua (AVEFA) [1] amounted to 80%; in test [2] it was 90%; in test [3], 100%; in the test with Lolium perenne (LOLPE) [4], 100%; in the test with Avena fatua (AVEFA) [5] it was 80%; in test [6], 80%. The pest or weed control at 250 g/ha in test [7] was determined as 100%; in the test with Lolium perenne (LOLPE) [8] it was 80%.

As to `CCc1ccc(Oc2ccc(C#N)cn2)cc1C1=C(O)C(C)(C)OC(C)(C)C1=O` [Example A-150], the pest or weed control at 250 g/ha with Avena fatua (AVEFA) [1] worked out at 10%; in test [2], 10%; in test [3] it was 80%; in the test on Lolium perenne (LOLPE) [4], 70%; with Avena fatua (AVEFA) [5], 70%; in test [6], 60%. Further, the pest or weed control at 250 g/ha in test [7] was 100%; in the test with Lolium perenne (LOLPE) [8] it was 40%.

Consider `CCc1ccc(Oc2nc3ccc(Cl)cc3s2)cc1C1=C(O)CC2(CCOCC2)CC1=O` [Example A-304], for which the pest or weed control at 250 g/ha with Avena fatua (AVEFA) [1] came to 80%; in test [2] it was 80%; in test [3] it was 100%; in the test with Lolium perenne (LOLPE) [4], 70%; in the test on Avena fatua (AVEFA) [5] it was 100%; in test [6] it was 100%. The pest or weed control at 250 g/ha (in test [7]; in the test with Lolium perenne (LOLPE) [8]) was 100% each time.

As to `CCc1ccc(Oc2ccc3cc(Cl)ccc3n2)cc1C1=C(O)CC(C)(C)CC1=O` [Example A-261], the pest or weed control at 250 g/ha in the test on Avena fatua (AVEFA) [1] was found to be 50%; in test [2] it was 80%; in test [3], 90%; in the test with Lolium perenne (LOLPE) [4], 80%; in the test on Avena fatua (AVEFA) [5], 100%; in test [6], 90%. Besides, the pest or weed control at 250 g/ha (in test [7]; in the test with Lolium perenne (LOLPE) [8]) was 100% throughout.

With `CCc1ccc(Oc2nc3ccc(OC(F)(F)F)cc3s2)cc1C1=C(O)C(C)(C)OC(C)(C)C1=O` [Example A-218], the pest or weed control at 250 g/ha in the test on Avena fatua (AVEFA) [1] was 10%; in test [2], 20%; in test [3] it was 50%; in the test on Lolium perenne (LOLPE) [4], 20%; with Avena fatua (AVEFA) [5], 100%; in test [6], 70%. Further, the pest or weed control at 250 g/ha was 100% in test [7] and 80% in the test with Lolium perenne (LOLPE) [8].

As to `CCc1ccc(Oc2ccc(Cl)cc2F)cc1C1=C(O)[C@@H]2CC[C@](C)(C1=O)C2(C)C` (single isomer, unassigned) [Example A-95], the pest or weed control at 250 g/ha in the test with Avena fatua (AVEFA) [1] was 80%; in test [2], 70%; in test [3], 90%; in the test on Lolium perenne (LOLPE) [4], 90%; in the test with Avena fatua (AVEFA) [5], 80%; in test [6] it was 60%. Further, the figures for the pest or weed control at 250 g/ha (in test [7]; with Lolium perenne (LOLPE) [8]) were 80% and 50%, respectively.

`CCc1ccc(Oc2ccc(Cl)cc2Br)cc1C1=C(O)C(C)(C)OC(C)(C)C1=O` [Example A-23]: the pest or weed control at 250 g/ha in the test with Avena fatua (AVEFA) [1] turned out to be 70%; in test [2] it was 70%; in test [3], 90%; with Lolium perenne (LOLPE) [4], 90%; in the test with Avena fatua (AVEFA) [5] it was 80%; in test [6], 80%. In addition, the pest or weed control at 250 g/ha amounted to 100% in test [7] and 90% in the test with Lolium perenne (LOLPE) [8].

Source of the values: patent publication US8865623B2, “Herbicidally active cyclic diones and derivatives thereof, processes for their preparation, compositions, and method of controlling weeds” (Syngenta Limited, priority 2009, dated 2014).
